Values quoted from earlier work, collected in publication PMC8177775 (Cancer Science, 2021).

What was measured:
[1] = test system: patients with acute myeloid leukemia; conditions: n = 36; cited from earlier work
[2] = test system: patients with solid tumors; conditions: cited from earlier work
[3] = test system: patients with wild‐type p53 and RAS or RAF mutations and locally advanced or metastatic solid tumors; conditions: 26 patients; cited from earlier work

For CC(C)[C@@H](CS(=O)(=O)C(C)C)N1C(=O)[C@@](C)(CC(=O)O)C[C@H](c2cccc(Cl)c2)[C@H]1c1ccc(Cl)cc1 [AMG 232], the “Common treatment-related AEs” value [1] is given as “nausea, diarrhea, and vomiting” and the MTD [1] is given as “not reached”.
In the case of CCOc1cc(C(C)(C)C)ccc1C1=N[C@@](C)(c2ccc(Cl)cc2)[C@@](C)(c2ccc(Cl)cc2)N1C(=O)N1CCN(CCCS(C)(=O)=O)CC1 [RG7112], the “Grade ≥ 3 lymphocyte count decreased” value ([2]; n = 76) is listed as 11 patients, the “Grade ≥ 3 platelet count decreased” value ([2]; n = 76) is listed as “two patients” and the Tolerability ([2]; patients (n = 76) with solid tumors) is listed as “generally well tolerated”.
For CC(C)(C)C[C@@H]1N[C@@H](C(=O)N[C@H]2CC[C@H](O)CC2)[C@H](c2cccc(Cl)c2F)[C@]12C(=O)Nc1cc(Cl)ccc12 [SAR405838], the “Most common reported AEs” value [3] is listed as “diarrhea, blood creatine phosphokinase increased, nausea, and vomiting”.
